Reference: patent publication US20210253562A1, “ACYLSUFONAMIDE COMPOUNDS USEFUL AS EP3 RECEPTOR ANTAGONISTS” (Janssen Pharmaceutica NV, priority 2018, published 2021)
Values joined by “and” are separate entries in the source; they are usually repeats but may differ in a detail not shown here. Equal values may be shown once.

Target: T1, EP3 membrane (EP3 receptor) (Homo sapiens, UniProt P43115)
T1 construct: purchased Millipore HTS092M
T1 sequence (P43115 1-390): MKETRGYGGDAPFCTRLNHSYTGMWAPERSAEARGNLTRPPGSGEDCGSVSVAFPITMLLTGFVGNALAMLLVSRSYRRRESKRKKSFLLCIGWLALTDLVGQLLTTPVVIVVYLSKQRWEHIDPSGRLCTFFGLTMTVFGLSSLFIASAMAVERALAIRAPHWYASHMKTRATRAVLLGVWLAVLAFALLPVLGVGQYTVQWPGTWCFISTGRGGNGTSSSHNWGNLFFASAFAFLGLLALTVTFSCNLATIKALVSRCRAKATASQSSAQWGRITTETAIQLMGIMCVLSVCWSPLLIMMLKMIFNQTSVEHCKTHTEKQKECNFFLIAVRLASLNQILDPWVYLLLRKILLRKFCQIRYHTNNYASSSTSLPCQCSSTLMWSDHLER
Test: [3H]-PGE2 binding; EP3 competition binding (SPA)
Procedure: Biological Example 1: [3H]-PGE2 Binding
EP3 competition binding was determined using the following materials and experimental conditions: • Beads=Perkin Elmer RPNQ0001 • [3H]PGE2=Perkin Elmer NET428025UC • 384-well plate=Perkin Elmer 6007290 • EP3 membrane=Millipore HTS092M • Membrane concentration=2 μg/well • Beads concentration=0.25 mg/well • [3H]-PGE2=2 nM; DMSO—0.1% • Binding buffer=50 mM Tris, 10 mM MgCl2, 1 mM EDTA, PH 7.4.
The reaction system was prepared by mixing 5 μl of unlabeled compound; 5 μl of diluted [3H]-PGE2; 5 μl of diluted membrane; and 15 μl of SPA beads dissolved in binding buffer (adding in the following sequence: Unlabeled compound, [3H]-PGE2, Membrane and Beads).
The binding buffer was removed from refrigeration (@ 4° C.) and allowed to warm to room temperature. Test compound (@ stock concentration of […] in DMSO) was serial dilutes (1:3) with 100% DMSO using Echo plate. Diluted test compound (30 nL) was dispensed to the 384-well assay plate (using Echo 550 Labcyte System). To each well was then added assay buffer (5 μl) and each well was spun. Beads were weighed out, dissolved in assay buffer to a concentration of 0.25 mg/15 μl. Original membrane was diluted with assay buffer to a concentration of 2 μg/5 μl. Original [3H]-PGE2 with diluted with assay buffer to a concentration of 12 nM. To each test well were then added diluted [3H]-PGE2 (5 μl), diluted membrane (5 μl), and dissolved beads (15 μl). The plate was equilibrated at room temperature on a plate shaker for 2 hours and then read with a TOPCOUNT scintillation plate reader. Results were analyzed using a Prism program with non-linear regression, one-site fit for Ki.

| Ki | SMILES |
| --- | --- |
| 8 nM | Cc1cc(S(=O)(=O)NC(=O)NC/C(F)=C2\CCCc3cnn(Cc4ccc(Cl)cc4Cl)c32)sc1C [Compound #142, (Z)—N-((2-(1-(2,4-dichlorobenzyl)-1,4,5,6-tetrahydro-7H-indazol-7-ylidene)-2-fluoroethyl)carbamoyl)-4,5-dimethylthiophene-2-sulfonamide] |
| 62 nM | O=C(NC/C(F)=C1\COCc2cnn(C3CCN(c4ccc(F)cc4)CC3)c21)NS(=O)(=O)c1cc(Cl)c(Cl)s1 [Compound #144, (E)-4,5-dichloro-N-((2-fluoro-2-(1-(1-(4-fluorophenyl)piperidin-4-yl)-1,4-dihydropyrano[4,3-c]pyrazol-7(6H)-ylidene)ethyl)carbamoyl)thiophene-2-sulfonamide] |
| 6 nM | O=C(NC/C(F)=C1\COCc2onc(Cc3ccc(Cl)cc3Cl)c21)NS(=O)(=O)c1cc(Cl)c(Cl)s1 [Compound #145, (E)-4,5-dichloro-N-((2-(3-(2,4-dichlorobenzyl)-5H-pyrano[4,3-d]isoxazol-4(7H)-ylidene)-2-fluoroethyl)carbamoyl)thiophene-2-sulfonamide] |
| 22 nM | COCn1nc(Cc2ccc(Cl)cc2Cl)c2c1COC/C2=C(/F)CNC(=O)NS(=O)(=O)c1cc(Cl)c(Cl)s1 [Compound #146, (E)-4,5-dichloro-N-((2-(3-(2,4-dichlorobenzyl)-1-(methoxymethyl)-1,7-dihydropyrano[3,4-c]pyrazol-4(5H)-ylidene)-2-fluoroethyl)carbamoyl)thiophene-2-sulfonamide] |
| 6 nM | O=C(NC/C=C1\CCCc2cnn(C3CCN(Cc4ccccc4)CC3)c21)NS(=O)(=O)c1cc(Cl)c(Cl)s1 [Compound #148, (E)-N-((2-(1-(1-benzylpiperidin-4-yl)-1,4,5,6-tetrahydro-7H-indazol-7-ylidene)ethyl)carbamoyl)-4,5-dichlorothiophene-2-sulfonamide] |
| 102 nM | CN1CCC(n2ncc3c2/C(=C/CNC(=O)NS(=O)(=O)c2cc(Cl)c(Cl)s2)CCC3)CC1 [Compound #151, (E)-4,5-dichloro-N-((2-(1-(1-methylpiperidin-4-yl)-1,4,5,6-tetrahydro-7H-indazol-7-ylidene)ethyl)carbamoyl)thiophene-2-sulfonamide] |
| 22 nM | Cn1ccc(S(=O)(=O)NC(=O)NC/C=C2\CCCc3cnn(Cc4ccc(Cl)cc4Cl)c32)n1 [Compound #153, (E)-N-((2-(1-(2,4-dichlorobenzyl)-1,4,5,6-tetrahydro-7H-indazol-7-ylidene)ethyl)carbamoyl)-1-methyl-1H-pyrazole-3-sulfonamide] |
| 13 nM | O=C(NC/C(F)=C1\CCCc2cnn(C3CCN(c4ccc(F)cc4)CC3)c21)NS(=O)(=O)c1cc(Cl)c(Cl)s1 [Compound #154, (Z)-4,5-dichloro-N-((2-fluoro-2-(1-(1-(4-fluorophenyl)piperidin-4-yl)-1,4,5,6-tetrahydro-7H-indazol-7-ylidene)ethyl)carbamoyl)thiophene-2-sulfonamide] |
| 467 nM | O=C(NC/C(F)=C1\CCCc2cnn(CCc3ccc(C(F)(F)F)cc3)c21)NS(=O)(=O)c1cc(Cl)c(Cl)s1 [Compound #157, (Z)-4,5-dichloro-N-((2-fluoro-2-(1-(4-(trifluoromethyl)phenethyl)-1,4,5,6-tetrahydro-7H-indazol-7-ylidene)ethyl)carbamoyl)thiophene-2-sulfonamide] |
| 32 nM | Cc1nc(C)c(S(=O)(=O)NC(=O)NC/C(F)=C2\CCCc3cnn(Cc4ccc(Cl)cc4Cl)c32)s1 [Compound #158, (Z)—N-((2-(1-(2,4-Dichlorobenzyl)-1,4,5,6-tetrahydro-7H-indazol-7-ylidene)-2-fluoroethyl)carbamoyl)-2,4-dimethylthiazole-5-sulfonamide] |
| 22 nM | COc1ccc(S(=O)(=O)NC(=O)NC/C(F)=C2\CCCc3cnn(Cc4ccc(Cl)cc4Cl)c32)cc1F [Compound #159, (Z)—N-((2-(1-(2,4-Dichlorobenzyl)-1,4,5,6-tetrahydro-7H-indazol-7-ylidene)-2-fluoroethyl)carbamoyl)-3-fluoro-4-methoxybenzenesulfonamide] |
| 217 nM | Cc1nc(C)c(S(=O)(=O)NC(=O)NC/C(F)=C2\COCc3cnn(Cc4ccc(Cl)cc4Cl)c32)s1 [Compound #160, (E)-N-((2-(1-(2,4-dichlorobenzyl)-1,4-dihydropyrano[4,3-c]pyrazol-7(6H)-ylidene)-2-fluoroethyl)carbamoyl)-2,4-dimethylthiazole-5-sulfonamide] |
| 57 nM | COc1ccc(S(=O)(=O)NC(=O)NC/C(F)=C2\COCc3cnn(Cc4ccc(Cl)cc4Cl)c32)cc1F [Compound #161, (E)-N-((2-(1-(2,4-dichlorobenzyl)-1,4-dihydropyrano[4,3-c]pyrazol-7(6H)-ylidene)-2-fluoroethyl)carbamoyl)-3-fluoro-4-methoxybenzenesulfonamide] |
| > 10000 nM | O=C(NC/C=C1\CCCc2cnn(Cc3ncc(-c4ccccc4)cn3)c21)NS(=O)(=O)c1cc(Cl)c(Cl)s1 [Compound #163, (E)-4,5-dichloro-N-((2-(1-((5-phenylpyrimidin-2-yl)methyl)-1,4,5,6-tetrahydro-7H-indazol-7-ylidene)ethyl)carbamoyl)thiophene-2-sulfonamide] |
| 3200 nM | O=C(NC/C(F)=C1\CCCn2nnc(-c3ccc(C(F)(F)F)cc3)c21)NS(=O)(=O)c1cc(Cl)c(Cl)s1 [Compound #164, (Z)-4,5-dichloro-N-((2-fluoro-2-(3-(4-(trifluoromethyl)phenyl)-6,7-dihydro-[1,2,3]triazolo[1,5-a]pyridin-4(5H)-ylidene)ethyl)carbamoyl)thiophene-2-sulfonamide] |
| 10 nM | COc1ccc(S(=O)(=O)NC(=O)NC/C(F)=C2\COCc3cnn(Cc4ccc(Cl)cc4Cl)c32)cc1Cl [Compound #165, (E)-3-chloro-N-((2-(1-(2,4-dichlorobenzyl)-1,4-dihydropyrano[4,3-c]pyrazol-7(6H)-ylidene)-2-fluoroethyl)carbamoyl)-4-methoxybenzenesulfonamide] |
| 6 nM and 7 nM | Cc1cc(S(=O)(=O)NC(=O)NC/C(F)=C2\COCc3cnn(Cc4ccc(Cl)cc4Cl)c32)sc1Cl [Compound #166, (E)-5-chloro-N-((2-(1-(2,4-dichlorobenzyl)-1,4-dihydropyrano[4,3-c]pyrazol-7(6H)-ylidene)-2-fluoroethyl)carbamoyl)-4-methylthiophene-2-sulfonamide] |
| 7 nM | Cc1cc(Cl)ccc1Cc1nnn2c1/C(=C(\F)CNC(=O)NS(=O)(=O)c1cc(Cl)c(Cl)s1)CCC2 [Compound #167, (Z)-4,5-dichloro-N-((2-(3-(4-chloro-2-methylbenzyl)-6,7-dihydro-[1,2,3]triazolo[1,5-a]pyridin-4(5H)-ylidene)-2-fluoroethyl)carbamoyl)thiophene-2-sulfonamide] |
| 232 nM | Cn1nccc1S(=O)(=O)NC(=O)NC/C(F)=C1\CCCc2cnn(Cc3ccc(Cl)cc3Cl)c21 [Compound #168, (Z)—N-((2-(1-(2,4-dichlorobenzyl)-1,4,5,6-tetrahydro-7H-indazol-7-ylidene)-2-fluoroethyl)carbamoyl)-1-methyl-1H-pyrazole-5-sulfonamide] |
| 83 nM | Cc1c(S(=O)(=O)NC(=O)NC/C(F)=C2\CCCc3cnn(Cc4ccc(Cl)cc4Cl)c32)cnn1C [Compound #169, (Z)—N-((2-(1-(2,4-dichlorobenzyl)-1,4,5,6-tetrahydro-7H-indazol-7-ylidene)-2-fluoroethyl)carbamoyl)-1,5-dimethyl-1H-pyrazole-4-sulfonamide] |
| 612 nM | CC(C)n1cc(S(=O)(=O)NC(=O)NC/C(F)=C2\CCCc3cnn(Cc4ccc(Cl)cc4Cl)c32)cn1 [Compound #170, (Z)—N-((2-(1-(2,4-dichlorobenzyl)-1,4,5,6-tetrahydro-7H-indazol-7-ylidene)-2-fluoroethyl)carbamoyl)-1-isopropyl-1H-pyrazole-4-sulfonamide] |
| 18 nM | Cn1nccc1S(=O)(=O)NC(=O)NC/C=C1\CCCc2cnn(Cc3ccc(Cl)cc3Cl)c21 [Compound #171, (E)-N-((2-(1-(2,4-dichlorobenzyl)-1,4,5,6-tetrahydro-7H-indazol-7-ylidene)ethyl)carbamoyl)-1-methyl-1H-pyrazole-5-sulfonamide] |
| 4 nM | Cc1c(S(=O)(=O)NC(=O)NC/C=C2\CCCc3cnn(Cc4ccc(Cl)cc4Cl)c32)cnn1C [Compound #172, (E)-N-((2-(1-(2,4-dichlorobenzyl)-1,4,5,6-tetrahydro-7H-indazol-7-ylidene)ethyl)carbamoyl)-1,5-dimethyl-1H-pyrazole-4-sulfonamide] |
